Measurements reported in patent publication US20090226500A1, “SUTURES AND ANTI-SCARRING AGENTS” (Angiotech Pharmaceuticals, Inc, priority 2006, published 2009).
pIC50: −log10 of the molar value. Where a name gives a salt, the structure may show the parent alone. Numbered stars: 1 amine (or outer) side, 2 acyl side, 3 side chain; on linkers, the order of the positions; unused ones are H or OH. Bridge positions count the residues as written; N and C are the ends. Square brackets hold non-standard residues; d marks the D form. Peptide text beside a SMILES is read from it. I, II: the chains in the order shown. Actinocin(9to1) = Cc1c2oc3c(C)ccc(C(=O)[*:1])c3nc-2c(C(=O)[*:2])c(N)c1=O; NMeV = CN[C@H](C(=O)O)C(C)C; Sar = CNCC(=O)O

Each compound was assayed on human fibroblasts (assay: Cell proliferation of fibroblasts). Conditions: Fibroblast, 72 hours, CYQUANT, read-out: IC50 cell proliferation of fibroblasts.
Type: cell-based
Procedure: Fibroblasts at 70-90% confluency are trypsinized, replated at 600 cells/well in media in 96-well plates and allowed to attachment overnight. […] Each drug concentration is tested in triplicate wells. Plates containing fibroblasts and drug substance are incubated at 37° C. for 72 hours.
To terminate the assay, the media is removed by gentle aspiration. A 1/400 dilution of CYQUANT 400×GR™ dye indicator (Molecular Probes; Eugene, Oreg.) is added to 1× Cell Lysis buffer, and 200 μL of the mixture is added to the wells of the plate. Plates are incubated at room temperature, protected from light for 3-5 minutes.

Structure (SMILES) | pIC50
Nc1ncn([C@@H]2O[C@H](CO)[C@@H](O)[C@H]2O)c(=O)n1 [5-Azacytidine] | 5.92 to 6.22
O=c1cnn([C@@H]2O[C@H](CO)C(O)[C@@H]2O)c(=O)[nH]1 (some centres unmarked) [6-Azauridine, 6-Azauracil riboside] | 5.00 to 5.92
CC[C@@]1(O)C[C@H](O[C@H]2C[C@H](N(C)C)[C@H](O[C@H]3C[C@H](O)[C@H](O[C@H]4CCC(=O)[C@H](C)O4)[C@H](C)O3)[C@H](C)O2)c2c(cc3c(c2O)C(=O)c2c(O)cccc2C3=O)[C@H]1C(=O)OC [Aclarubicin] | 8.00 to 10.00
Cc1c2oc3c(C)ccc(C(=O)N[C@@H]4C(=O)N[C@H](C(C)C)C(=O)N5CCC[C@H]5C(=O)N(C)CC(=O)N(C)[C@@H](C(C)C)C(=O)O[C@@H]4C)c3nc-2c(C(=O)N[C@@H]2C(=O)N[C@H](C(C)C)C(=O)N3CCC[C@H]3C(=O)N(C)CC(=O)N(C)[C@@H](C(C)C)C(=O)O[C@@H]2C)c(N)c1=O [Actinomycin D] (I: T[dV]P[Sar][NMeV] / II: T[dV]P[Sar][NMeV]; ester I:1-I:C, II:1-II:C; linker I:N-II:N via Actinocin(9to1)) | 8.00 to 10.00
CCCSc1ccc2nc(NC(=O)OC)[nH]c2c1 [Albendazole] | 6.22 to 7.00
S=C(S)N1CCCC1 [Ammonium pyrrolidinedithiocarbamate, 1-Pyrrolidinecarbodithioic acid ammonium salt] | 6.22 to 7.00
N=c1ccn2c(n1)O[C@H]1[C@H](O)[C@@H](CO)O[C@H]12 [Ancitabine hydrochloride] | 6.22 to 7.00
O=c1cc(-c2ccc(O)cc2)oc2cc(O)cc(O)c12 [Apigenin, 4,5,7-Trihydroxyflavone] | 5.00 to 5.92
O=C1C(O)=C([C@H]2CC[C@H](c3ccc(Cl)cc3)CC2)C(=O)c2ccccc21 [Atovaquone] | 5.00 to 5.92
Cc1ccc2nc(NCCN)c3ncc(C)n3c2c1 [BMS-345541] | 5.00 to 5.92
O=C(OOC(=O)c1ccccc1)c1ccccc1 [Benzoyl peroxide] | 5.00 to 5.92
C=C(C)[C@@H]1CC[C@]2(C(=O)O)CC[C@]3(C)[C@H](CC[C@@H]4[C@@]5(C)CC[C@H](O)C(C)(C)[C@@H]5CC[C@]43C)[C@@H]12 [Betulinic acid] | 5.00 to 5.92
Clc1ccc(CCC(Cn2ccnc2)Sc2c(Cl)cccc2Cl)cc1 (centres unmarked) [Butoconazole Nitrate] | 5.00 to 5.92
O=C1NC(=O)c2cc(Nc3ccc(F)cc3)c(Nc3ccc(F)cc3)cc21 [CGP53353] | 5.00 to 5.92
CCOc1nc2cccc(C(=O)O)c2n1Cc1ccc(-c2ccccc2-c2nnn[nH]2)cc1 [Candesartan] | 7.00 to 8.00
O=NN(CCCl)C(=O)NCCCl [Carmustine] | 5.00 to 5.92
Cc1ccc(-c2cc(C(F)(F)F)nn2-c2ccc(S(N)(=O)=O)cc2)cc1 [Celecoxib] | 6.22 to 7.00
C/C=C(\C)C(=O)N[C@@H](c1ccccc1)[C@@H](O)C(=O)O[C@H]1C[C@@]2(O)[C@@H](OC(=O)c3ccccc3)[C@@H]3[C@]4(OC(C)=O)CO[C@@H]4C[C@H](O)[C@@]3(C)C(=O)[C@H](OC(C)=O)C(=C1C)C2(C)C [Cephalomannine] | 7.00 to 8.00
COc1ccc2cc1Oc1ccc(cc1)C[C@H]1c3c(cc4c(c3Oc3cc5c(cc3OC)CCN(C)[C@@H]5C2)OCO4)CCN1C [Cepharanthine] | 5.92 to 6.22
COCc1c(C(C)C)nc(C(C)C)c(/C=C/[C@@H](O)C[C@@H](O)CC(=O)O)c1-c1ccc(F)cc1 [Cerivastatin Na] | 5.00 to 5.92
CC1(COc2ccc(CC3SC(=O)NC3=O)cc2)CCCCC1 (centres unmarked) [Ciglitazone] | 5.92 to 6.22
CC[C@H]1OC(=O)[C@H](C)[C@@H](O[C@H]2C[C@@](C)(OC)[C@@H](O)[C@H](C)O2)[C@H](C)[C@@H](O[C@@H]2O[C@H](C)C[C@H](N(C)C)[C@H]2O)[C@](C)(OC)C[C@@H](C)C(=O)[C@H](C)[C@@H](O)[C@]1(C)O [Clarithromycin, 6-O-Methylerythromycin] | 6.22 to 7.00
O=C1CCc2cc(OCCCCc3nnnn3C3CCCCC3)ccc2N1 [Cliostazol] | 5.00 to 5.92

Structure (SMILES) | pIC50
CCOC(=O)COc1ccc2c(C)c(CCN(CC)CC)c(=O)oc2c1Cl [Cloricromene] | 5.00 to 5.92
COc1cc(/C=C/C(=O)CC(=O)/C=C/c2ccc(O)c(OC)c2)ccc1O [Curcumin, Diferuloylmethane] | 5.00 to 5.92
CN(C)/N=N/c1[nH]cnc1C(N)=O [Dacarbazine] | 7.00 to 8.00
Nc1ncn([C@H]2C[C@H](O)[C@@H](CO)O2)c(=O)n1 [Decitabine, 5-Aza-2-deoxycytidine] | 6.22 to 7.00
O=c1oc2ccccc2c(O)c1Cc1c(O)c2ccccc2oc1=O [Dicumarol, 3,3-Methylenebis(4-hydroxycoumarin)] | 5.00 to 5.92
CC(=O)OCC(=O)[C@@]1(OC(C)=O)[C@@H](C)C[C@H]2[C@@H]3C[C@H](F)C4=CC(=O)C=C[C@]4(C)[C@@]3(F)[C@@H](O)C[C@@]21C [Diflorasone diacetate] | 5.00 to 5.92
Cc1cc(O)c2c(c1)C(=O)c1cc(O)cc(O)c1C2=O [Emodin, 6-Methyl-1,3,8-trihydroxyanthraquinone] | 5.00 to 5.92
CCOC(=O)[C@H](CCc1ccccc1)N[C@@H](C)C(=O)N1CCC[C@H]1C(=O)O [Enalapril] | 5.00 to 5.92
COC(=O)C=Cc1cc(O)ccc1O [Erbstatin analog, Methyl 2,5-dihydroxycinnamate] | 5.00 to 5.92
O=C(O)CSCC(=O)NC1CCSC1=O (centres unmarked) [Erdosteine] | 5.00 to 5.92
NC(N)=Nc1nc(CSCCC(N)=NS(N)(=O)=O)cs1 [Famotidine] | 6.22 to 7.00
O=S(=O)(c1cccc2cnccc12)N1CCCNCC1 [Fasudil] | 5.92 to 6.22
Nc1nc(F)nc2c1ncn2[C@@H]1O[C@H](COP(=O)(O)O)[C@@H](O)[C@@H]1O [Fludarabine Phosphate] | 5.00 to 5.92
CC(C)n1c(/C=C/C(O)CC(O)CC(=O)O)c(-c2ccc(F)cc2)c2ccccc21 (centres unmarked) [Fluvastatin] | 6.22 to 7.00
COc1ccc(-c2coc3cc(O)ccc3c2=O)cc1 [Formononetin, 7-Hydroxy-4-methoxyisoflavone] | 6.22 to 7.00
Cc1ccc(C)c(OCCCC(C)(C)C(=O)O)c1 [Gemfibrozil] | 7.00 to 8.00
CCCCCCC(C)(C)c1cc(O)c2c(c1)OC(C)(C)[C@@H]1CC=C(CO)C[C@@H]21 [HU-210] | 5.00 to 5.92
CCC(=O)O[C@]1(C(=O)CCl)[C@@H](C)C[C@H]2[C@@H]3C[C@H](F)C4=CC(=O)C=C[C@]4(C)[C@@]3(F)[C@@H](O)C[C@@]21C [Halobetasol Propionate] | 5.00 to 5.92
COc1ccc([C@@H]2CC(=O)c3c(O)cc(O)cc3O2)cc1O [Hesperetin] | 8.00 to 10.00
COC(=O)C[C@](O)(CCCC(C)(C)O)C(=O)O[C@@H]1C(OC)=C[C@]23CCCN2CCc2cc4c(cc2[C@H]13)OCO4 [Homoharringtonine] | 7.00 to 8.00
NNc1nncc2ccccc12 [Hydralazine hydrochloride] | 5.00 to 5.92
O=C(Nc1cc(C(F)(F)F)cc(C(F)(F)F)c1)c1cc(Cl)ccc1O [IMD-0354] | 6.22 to 7.00
O=c1[nH]cnc2c1ncn2[C@@H]1O[C@H](CO)[C@@H](O)[C@H]1O [INO-1001] | 5.00 to 5.92

Structure (SMILES) | pIC50
COC1=C(OC)C(=O)C(CCCCCCCCCCO)=C(C)C1=O [Idebenone] | 5.00 to 5.92
c1c[nH]cn1 [Imidazole] | 5.00 to 5.92
CCc1c2c(nc3ccc(OC(=O)N4CCC(N5CCCCC5)CC4)cc13)-c1cc3c(c(=O)n1C2)COC(=O)[C@]3(O)CC [Irinotecan Hydrochloride Trihydrate] | 5.92 to 6.22
Nc1nc(N)nc(-c2cc(Cl)ccc2Cl)n1 [Irsogladine] | 5.00 to 5.92
CO[C@@H]1[C@@H](O[C@@H]2O[C@H](C)[C@@H](O[C@H]3C[C@@](C)(O)[C@@H](OC(=O)CC(C)C)[C@H](C)O3)[C@H](N(C)C)[C@H]2O)[C@@H](CC=O)C[C@@H](C)[C@@H](O)/C=C/C=C/C[C@@H](C)OC(=O)C[C@H]1OC(C)=O [Josamycin] | 8.00 to 10.00
O=c1c(O)c(-c2ccc(O)cc2)oc2cc(O)cc(O)c12 [Kaempferol] | 5.92 to 6.22
CN(C)C[C@@H]1CCn2cc(c3ccccc32)C2=C(C(=O)NC2=O)c2cn(c3ccccc23)CCO1 [LY333531, Ruboxistaurin] | 5.00 to 5.92
CCCCc1nc(Cl)c(CO)n1Cc1ccc(-c2ccccc2-c2nn[nH]n2)cc1 [Losartan potassium] | 5.00 to 5.92
NC(Cc1ccc(N(CCCl)CCCl)cc1)C(=O)O (centres unmarked) [Melphalan] | 5.00 to 5.92
CCC(=O)O[C@@H]1CC(=O)O[C@H](C)C/C=C/C=C/[C@H](O)[C@H](C)C[C@H](CC=O)[C@H](O[C@@H]2O[C@H](C)[C@@H](O[C@H]3C[C@@](C)(O)[C@@H](OC(=O)CC)[C@H](C)O3)[C@H](N(C)C)[C@H]2O)[C@H]1OC [Midecamycin, Leucomycin V 3,4B-dipropionate] | 5.00 to 5.92
O[C@@H]([C@H](O)[C@H](O)CBr)[C@H](O)CBr [Mitobronitol] | 6.22 to 7.00
NC(=O)c1ncn([C@@H]2O[C@H](CO)[C@@H](O)[C@H]2O)c1O [Mizoribine] | 7.00 to 8.00
O=c1c(O)c(-c2cc(O)c(O)c(O)c2)oc2cc(O)cc(O)c12 [Myricetin] | 5.92 to 6.22
CS(=O)(=O)Nc1ccc([N+](=O)[O-])cc1OC1CCCCC1 [NS-398] | 5.00 to 5.92
CNCCC=C1c2ccccc2CCc2ccccc21 [Nortriptyline Hydrochloride] | 8.00 to 10.00
CN(C)[C@@H]1C(O)=C(C(N)=O)C(=O)[C@@]2(O)C(O)=C3C(=O)c4c(O)cccc4[C@@](C)(O)[C@H]3[C@H](O)[C@@H]12 [Oxytetracycline hydrochloride] | 6.22 to 7.00
NCCC(O)(P(=O)(O)O)P(=O)(O)O [Pamidronate disodium] | 6.22 to 7.00
OC1(c2ccc(Cl)c(C(F)(F)F)c2)CCN(CCCC(c2ccc(F)cc2)c2ccc(F)cc2)CC1 [Penfluridol] | 5.92 to 6.22
N=C(N)c1ccc(OCCCCCOc2ccc(C(=N)N)cc2)cc1 [Pentamidine] | 5.92 to 6.22
C1CCNCC1 [Piperidine] | 5.00 to 5.92
O=C(CCBr)N1CCN(C(=O)CCBr)CC1 [Pipobroman, N,N-Bis(3-bromopropionyl)piperazine] | 5.00 to 5.92
Cc1ccc(=O)n(-c2ccccc2)c1 [Pirfenidone] | 7.00 to 8.00
